# Results: the supplement of paper PMC10733146
# Experiments:
# Assay in all cases: viability relative to DMSO control (fraction); higher = less drug effect (more viable cells)
# Settings in all cases: 48 h
# Cladribine = compound: Nc1nc(Cl)nc2c1ncn2[C@H]1C[C@H](O)[C@@H](CO)O1 [Cladribine]
# In short: (§1)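 Viability is given as CellTiter-Glo luminescence relative to the median of 16 inner DMSO wells. Fresh or cryopreserved primary mononuclear tumour cells from blood, bone marrow (both Ficoll-isolated) or processed lymph node were plated at 4 × 10^4 cells per well in 384-well plates against five pre-plated compound concentrations, one well each. Incubation lasted 48 h at 37 °C and 5% CO2 in RPMI-1640 with penicillin/streptomycin, L-glutamine and human serum.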
# Bortezomib = compound: CC(C)C[C@H](NC(=O)[C@H](Cc1ccccc1)NC(=O)c1cnccn1)B(O)O [Bortezomib]
# In short: as §1
# Vemurafenib = compound: CCCS(=O)(=O)Nc1ccc(F)c(C(=O)c2c[nH]c3ncc(-c4ccc(Cl)cc4)cc23)c1F [Vemurafenib]
# In short: as §1
# Panobinostat = compound: Cc1[nH]c2ccccc2c1CCNCc1ccc(/C=C/C(=O)NO)cc1 [Panobinostat]
# In short: as §1
# TMP269 = compound: O=C(NCC1(c2nc(-c3ccccc3)cs2)CCOCC1)c1cccc(-c2noc(C(F)(F)F)n2)c1 [TMP269]
# In short: as §1
# Rigosertib = compound: COc1cc(OC)c(/C=C/S(=O)(=O)Cc2ccc(OC)c(NCC(=O)O)c2)c(OC)c1 [Rigosertib]
# In short: as §1
# Iniparib = compound: NC(=O)c1ccc(I)c([N+](=O)[O-])c1 [Iniparib]
# In short: as §1
# AG-221 (Enasidinib) = compound: CC(C)(O)CNc1nc(Nc2ccnc(C(F)(F)F)c2)nc(-c2cccc(C(F)(F)F)n2)n1 [AG-221 (Enasidinib)]
# In short: as §1
# EPZ-5676 = compound: CC(C)N(C[C@H]1O[C@@H](n2cnc3c(N)ncnc32)[C@H](O)[C@@H]1O)[C@H]1C[C@@H](CCc2nc3cc(C(C)(C)C)ccc3[nH]2)C1 [EPZ-5676]
# In short: as §1
# Quizartinib = compound: CC(C)(C)c1cc(NC(=O)Nc2ccc(-c3cn4c(n3)sc3cc(OCCN5CCOCC5)ccc34)cc2)no1 [Quizartinib]
# In short: as §1
# BI6727 = compound: CC[C@@H]1C(=O)N(C)c2cnc(Nc3ccc(C(=O)N[C@H]4CC[C@H](N5CCN(CC6CC6)CC5)CC4)cc3OC)nc2N1C(C)C [BI6727]
# In short: as §1
# 8-Azaguanin = compound: Nc1nc2n[nH]nc2c(=O)[nH]1 [8-Azaguanin]
# In short: as §1
# ONO-4059 = compound: CC#CC(=O)N1CC[C@@H](n2c(=O)n(-c3ccc(Oc4ccccc4)cc3)c3c(N)ncnc32)C1 [ONO-4059]
# In short: as §1
# Nelarabine = compound: COc1nc(N)nc2c1ncn2[C@@H]1O[C@H](CO)[C@@H](O)[C@@H]1O [Nelarabine]
# In short: as §1
# Imatinib = compound: Cc1ccc(NC(=O)c2ccc(CN3CCN(C)CC3)cc2)cc1Nc1nccc(-c2cccnc2)n1 [Imatinib]
# In short: as §1
test system,measurement,setting,value
primary AML patient cells (S091),viability,Cladribine; 0.024 µM,0.491
same,viability,Cladribine; 0.12 µM,0.335
same,viability,Cladribine; 0.6 µM,0.275
same,viability,Cladribine; 3 µM,0.241
same,viability,Cladribine; 15 µM,0.233
same,viability,Bortezomib; 0.008 µM,1.06
same,viability,Bortezomib; 0.04 µM,0.793
same,viability,Bortezomib; 0.2 µM,1.05
same,viability,Bortezomib; 1 µM,0.809
same,viability,Bortezomib; 5 µM,1.06
same,viability,Vemurafenib; 0.024 µM,1
same,viability,Vemurafenib; 0.12 µM,1.66
same,viability,Vemurafenib; 0.6 µM,1.12
same,viability,Vemurafenib; 3 µM,1.4
same,viability,Vemurafenib; 15 µM,1.9
same,viability,Panobinostat; 0.00064 µM,0.844
same,viability,Panobinostat; 0.0032 µM,0.473
same,viability,Panobinostat; 0.016 µM,0.173
same,viability,Panobinostat; 0.08 µM,0.138
same,viability,Panobinostat; 0.4 µM,0.133
same,viability,TMP269; 0.024 µM,0.852
same,viability,TMP269; 0.12 µM,0.896
same,viability,TMP269; 0.6 µM,0.878
same,viability,TMP269; 3 µM,0.847
same,viability,TMP269; 15 µM,0.895
same,viability,Rigosertib; 0.008 µM,0.971
same,viability,Rigosertib; 0.04 µM,1.06
same,viability,Rigosertib; 0.2 µM,0.961
same,viability,Rigosertib; 1 µM,0.899
same,viability,Rigosertib; 5 µM,1.05
same,viability,Iniparib; 0.024 µM,1.09
same,viability,Iniparib; 0.12 µM,1.01
same,viability,Iniparib; 0.6 µM,0.901
same,viability,Iniparib; 3 µM,0.975
same,viability,Iniparib; 15 µM,0.811
same,viability,AG-221 (Enasidinib); 0.024 µM,0.827
same,viability,AG-221 (Enasidinib); 0.12 µM,1.01
same,viability,AG-221 (Enasidinib); 0.6 µM,0.913
same,viability,AG-221 (Enasidinib); 3 µM,0.895
same,viability,AG-221 (Enasidinib); 15 µM,0.847
same,viability,EPZ-5676; 0.0032 µM,0.953
same,viability,EPZ-5676; 0.016 µM,0.965
same,viability,EPZ-5676; 0.08 µM,0.931
same,viability,EPZ-5676; 0.4 µM,1.04
same,viability,EPZ-5676; 2 µM,0.991
same,viability,Quizartinib; 0.016 µM,0.912
same,viability,Quizartinib; 0.08 µM,0.978
same,viability,Quizartinib; 0.4 µM,0.905
same,viability,Quizartinib; 2 µM,1.01
same,viability,Quizartinib; 10 µM,0.958
same,viability,BI6727; 0.024 µM,0.616
same,viability,BI6727; 0.12 µM,0.558
same,viability,BI6727; 0.6 µM,0.334
same,viability,BI6727; 3 µM,0.237
same,viability,BI6727; 15 µM,0.0937
same,viability,8-Azaguanin; 0.032 µM,0.841
same,viability,8-Azaguanin; 0.16 µM,0.89
same,viability,8-Azaguanin; 0.8 µM,0.781
same,viability,8-Azaguanin; 4 µM,0.443
same,viability,8-Azaguanin; 20 µM,0.309
same,viability,ONO-4059; 0.0016 µM,0.947
same,viability,ONO-4059; 0.008 µM,0.977
same,viability,ONO-4059; 0.04 µM,0.951
same,viability,ONO-4059; 0.2 µM,0.978
same,viability,ONO-4059; 1 µM,1.02
same,viability,Nelarabine; 0.024 µM,0.918
same,viability,Nelarabine; 0.12 µM,0.929
same,viability,Nelarabine; 0.6 µM,0.852
same,viability,Nelarabine; 3 µM,0.784
same,viability,Nelarabine; 15 µM,0.656
same,viability,Imatinib; 0.016 µM,1.04
same,viability,Imatinib; 0.08 µM,0.953
same,viability,Imatinib; 0.4 µM,1.05
same,viability,Imatinib; 10 µM,1.24
primary B-PLL patient cells (S016),viability,Cladribine; 0.024 µM,0.855
same,viability,Cladribine; 0.12 µM,0.645
same,viability,Cladribine; 0.6 µM,0.252
same,viability,Cladribine; 3 µM,0.105
same,viability,Cladribine; 15 µM,0.0548
same,viability,Bortezomib; 0.008 µM,0.99
same,viability,Bortezomib; 0.04 µM,1.07
same,viability,Bortezomib; 0.2 µM,1.01
same,viability,Bortezomib; 1 µM,1.19
same,viability,Bortezomib; 5 µM,1.02
same,viability,Vemurafenib; 0.024 µM,0.934
same,viability,Vemurafenib; 0.12 µM,0.948
same,viability,Vemurafenib; 0.6 µM,1.02
same,viability,Vemurafenib; 3 µM,1.01
same,viability,Vemurafenib; 15 µM,0.981
same,viability,Panobinostat; 0.00064 µM,0.824
same,viability,Panobinostat; 0.0032 µM,0.424
same,viability,Panobinostat; 0.016 µM,0.0534
same,viability,Panobinostat; 0.08 µM,0.0414
same,viability,Panobinostat; 0.4 µM,0.0709
same,viability,TMP269; 0.024 µM,1
same,viability,TMP269; 0.12 µM,1.11
same,viability,TMP269; 0.6 µM,1.05
same,viability,TMP269; 3 µM,1.07
same,viability,TMP269; 15 µM,1.06
same,viability,Rigosertib; 0.008 µM,0.976
same,viability,Rigosertib; 0.04 µM,1.04
same,viability,Rigosertib; 0.2 µM,0.948
same,viability,Rigosertib; 1 µM,0.961
same,viability,Rigosertib; 5 µM,0.455
same,viability,Iniparib; 0.024 µM,1.1
same,viability,Iniparib; 0.12 µM,1.01
same,viability,Iniparib; 0.6 µM,0.996
same,viability,Iniparib; 3 µM,0.921
same,viability,Iniparib; 15 µM,0.882
same,viability,AG-221 (Enasidinib); 0.024 µM,0.973
same,viability,AG-221 (Enasidinib); 0.12 µM,0.917
same,viability,AG-221 (Enasidinib); 0.6 µM,1.19
same,viability,AG-221 (Enasidinib); 3 µM,0.892
same,viability,AG-221 (Enasidinib); 15 µM,0.928
same,viability,EPZ-5676; 0.0032 µM,0.991
same,viability,EPZ-5676; 0.016 µM,1.09
same,viability,EPZ-5676; 0.08 µM,0.93
same,viability,EPZ-5676; 0.4 µM,0.971
same,viability,EPZ-5676; 2 µM,1.05
same,viability,Quizartinib; 0.016 µM,1.03
same,viability,Quizartinib; 0.08 µM,1.25
same,viability,Quizartinib; 0.4 µM,1.04
same,viability,Quizartinib; 2 µM,1.15
same,viability,Quizartinib; 10 µM,1
same,viability,BI6727; 0.024 µM,0.953
same,viability,BI6727; 0.12 µM,0.973
same,viability,BI6727; 0.6 µM,0.935
same,viability,BI6727; 3 µM,0.8
same,viability,BI6727; 15 µM,0.364
same,viability,8-Azaguanin; 0.032 µM,0.998
same,viability,8-Azaguanin; 0.16 µM,1.02
same,viability,8-Azaguanin; 0.8 µM,0.731
same,viability,8-Azaguanin; 4 µM,0.35
same,viability,8-Azaguanin; 20 µM,0.118
same,viability,ONO-4059; 0.0016 µM,0.701
same,viability,ONO-4059; 0.008 µM,0.554
same,viability,ONO-4059; 0.04 µM,0.553
same,viability,ONO-4059; 0.2 µM,0.491
same,viability,ONO-4059; 1 µM,0.577
same,viability,Nelarabine; 0.024 µM,0.896
same,viability,Nelarabine; 0.12 µM,1.03
same,viability,Nelarabine; 0.6 µM,0.898
same,viability,Nelarabine; 3 µM,1.04
same,viability,Nelarabine; 15 µM,0.674
same,viability,Imatinib; 0.016 µM,1.07
same,viability,Imatinib; 0.08 µM,0.938
same,viability,Imatinib; 0.4 µM,1.1
same,viability,Imatinib; 2 µM,0.793
same,viability,Imatinib; 10 µM,0.66
primary BL patient cells (S005),viability,Cladribine; 0.024 µM,0.965
same,viability,Cladribine; 0.12 µM,1.08
same,viability,Cladribine; 0.6 µM,0.933
same,viability,Cladribine; 3 µM,0.912
same,viability,Cladribine; 15 µM,0.83
same,viability,Bortezomib; 0.008 µM,1.57
same,viability,Bortezomib; 0.04 µM,0.959
same,viability,Bortezomib; 0.2 µM,1.54
same,viability,Bortezomib; 1 µM,0.964
same,viability,Bortezomib; 5 µM,1.44
same,viability,Vemurafenib; 0.024 µM,0.966
same,viability,Vemurafenib; 0.12 µM,0.993
same,viability,Vemurafenib; 0.6 µM,0.989
same,viability,Vemurafenib; 3 µM,1.07
same,viability,Vemurafenib; 15 µM,1.1
same,viability,Panobinostat; 0.00064 µM,0.9
same,viability,Panobinostat; 0.0032 µM,0.723
same,viability,Panobinostat; 0.016 µM,0.562
same,viability,Panobinostat; 0.08 µM,0.55
same,viability,Panobinostat; 0.4 µM,0.454
same,viability,TMP269; 0.024 µM,1.11
same,viability,TMP269; 0.12 µM,1.08
same,viability,TMP269; 0.6 µM,1.12
same,viability,TMP269; 3 µM,1.08
same,viability,TMP269; 15 µM,1
same,viability,Rigosertib; 0.008 µM,0.955
same,viability,Rigosertib; 0.04 µM,0.94
same,viability,Rigosertib; 0.2 µM,0.95
same,viability,Rigosertib; 1 µM,0.89
same,viability,Rigosertib; 5 µM,0.906
same,viability,Iniparib; 0.024 µM,0.983
same,viability,Iniparib; 0.12 µM,0.913
same,viability,Iniparib; 0.6 µM,0.829
same,viability,Iniparib; 3 µM,0.849
same,viability,Iniparib; 15 µM,0.626
same,viability,AG-221 (Enasidinib); 0.024 µM,0.867
same,viability,AG-221 (Enasidinib); 0.12 µM,1.43
same,viability,AG-221 (Enasidinib); 0.6 µM,0.806
same,viability,AG-221 (Enasidinib); 3 µM,1.26
same,viability,AG-221 (Enasidinib); 15 µM,1.35
same,viability,EPZ-5676; 0.0032 µM,1.54
same,viability,EPZ-5676; 0.016 µM,1.13
same,viability,EPZ-5676; 0.08 µM,1.46
same,viability,EPZ-5676; 0.4 µM,1.35
same,viability,EPZ-5676; 2 µM,1
same,viability,Quizartinib; 0.016 µM,1.01
same,viability,Quizartinib; 0.08 µM,1.1
same,viability,Quizartinib; 0.4 µM,1.07
same,viability,Quizartinib; 2 µM,1.11
same,viability,Quizartinib; 10 µM,0.966
same,viability,BI6727; 0.024 µM,0.931
same,viability,BI6727; 0.12 µM,0.881
same,viability,BI6727; 0.6 µM,0.9
same,viability,BI6727; 3 µM,0.725
same,viability,BI6727; 15 µM,0.483
same,viability,8-Azaguanin; 0.032 µM,0.991
same,viability,8-Azaguanin; 0.16 µM,1.05
same,viability,8-Azaguanin; 0.8 µM,0.978
same,viability,8-Azaguanin; 4 µM,0.812
same,viability,8-Azaguanin; 20 µM,0.658
same,viability,ONO-4059; 0.0016 µM,1.07
same,viability,ONO-4059; 0.008 µM,1.12
same,viability,ONO-4059; 0.04 µM,1.06
same,viability,ONO-4059; 0.2 µM,1.15
same,viability,ONO-4059; 1 µM,1.07
same,viability,Nelarabine; 0.024 µM,0.894
same,viability,Nelarabine; 0.12 µM,0.99
same,viability,Nelarabine; 0.6 µM,0.893
same,viability,Nelarabine; 3 µM,0.996
same,viability,Nelarabine; 15 µM,0.873
same,viability,Imatinib; 0.016 µM,1.02
same,viability,Imatinib; 0.08 µM,0.924
same,viability,Imatinib; 0.4 µM,0.982
same,viability,Imatinib; 2 µM,0.905
same,viability,Imatinib; 10 µM,0.867
